According to ChEMBL document CHEMBL1909046, “DrugMatrix in vitro pharmacology data”:

How the values were obtained:
[1] = target: T1, Muscarinic acetylcholine receptor M4 (Homo sapiens, UniProt P08173); assay type: cell membranes, CHO-K1, Membrane; details: cho-k1; note: in other assays of this panel Not Active means under 50% inhibition at 10 µM
T1 sequence (P08173 whole entry): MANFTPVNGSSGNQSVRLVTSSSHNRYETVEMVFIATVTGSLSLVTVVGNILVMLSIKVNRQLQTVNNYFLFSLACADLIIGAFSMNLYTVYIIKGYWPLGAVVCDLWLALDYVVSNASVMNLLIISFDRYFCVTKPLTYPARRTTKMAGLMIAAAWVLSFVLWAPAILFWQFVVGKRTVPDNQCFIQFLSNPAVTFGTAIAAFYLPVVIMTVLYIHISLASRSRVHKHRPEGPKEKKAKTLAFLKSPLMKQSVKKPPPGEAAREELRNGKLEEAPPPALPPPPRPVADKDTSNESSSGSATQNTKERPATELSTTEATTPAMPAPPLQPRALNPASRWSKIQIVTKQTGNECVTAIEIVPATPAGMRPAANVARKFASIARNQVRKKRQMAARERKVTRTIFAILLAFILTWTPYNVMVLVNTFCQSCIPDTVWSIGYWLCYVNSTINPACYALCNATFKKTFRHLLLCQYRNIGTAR

[2] = target: T2, Cathepsin G (Homo sapiens, UniProt P08311); assay type: tissue-based; details: neutrophil;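 note: inhibition of Cathepsin G enzyme activity, tested on an AMC-conjugated peptide substrate; in other assays of this panel Not Active means under 50% inhibition at 10 µM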
T2 sequence (P08311 whole entry): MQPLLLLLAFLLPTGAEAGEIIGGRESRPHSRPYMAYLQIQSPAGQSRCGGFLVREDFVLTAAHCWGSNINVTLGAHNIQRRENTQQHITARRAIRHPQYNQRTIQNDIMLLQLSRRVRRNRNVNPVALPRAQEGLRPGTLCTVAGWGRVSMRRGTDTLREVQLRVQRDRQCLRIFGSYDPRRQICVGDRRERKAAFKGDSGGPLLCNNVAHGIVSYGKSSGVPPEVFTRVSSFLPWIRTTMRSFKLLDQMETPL

[3] = target: T3, Muscarinic acetylcholine receptor M2 (Homo sapiens, UniProt P08172); assay type: cell membranes, CHO-K1, Membrane; details: cho-k1; note: in other assays of this panel Not Active means under 50% inhibition at 10 µM
T3 sequence (P08172 whole entry): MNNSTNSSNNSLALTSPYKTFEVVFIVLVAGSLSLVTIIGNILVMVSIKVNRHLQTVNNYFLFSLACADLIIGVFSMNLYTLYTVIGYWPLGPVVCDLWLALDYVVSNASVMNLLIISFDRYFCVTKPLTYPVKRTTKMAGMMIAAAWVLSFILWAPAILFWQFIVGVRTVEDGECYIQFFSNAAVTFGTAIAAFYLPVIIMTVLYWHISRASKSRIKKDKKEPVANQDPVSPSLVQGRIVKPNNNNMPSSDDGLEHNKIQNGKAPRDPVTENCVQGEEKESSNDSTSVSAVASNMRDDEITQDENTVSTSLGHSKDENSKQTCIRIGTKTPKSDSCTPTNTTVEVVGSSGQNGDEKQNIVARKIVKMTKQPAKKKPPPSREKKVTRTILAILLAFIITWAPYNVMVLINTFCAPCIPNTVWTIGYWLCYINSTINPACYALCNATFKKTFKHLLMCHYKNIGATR

[4] = target: T4, Cytochrome P450 2A6 (Homo sapiens, UniProt P11509); details: bti-tn-5b1-4; note: in other assays of this panel Not Active means under 50% inhibition at 10 µM
T4 sequence (P11509 whole entry): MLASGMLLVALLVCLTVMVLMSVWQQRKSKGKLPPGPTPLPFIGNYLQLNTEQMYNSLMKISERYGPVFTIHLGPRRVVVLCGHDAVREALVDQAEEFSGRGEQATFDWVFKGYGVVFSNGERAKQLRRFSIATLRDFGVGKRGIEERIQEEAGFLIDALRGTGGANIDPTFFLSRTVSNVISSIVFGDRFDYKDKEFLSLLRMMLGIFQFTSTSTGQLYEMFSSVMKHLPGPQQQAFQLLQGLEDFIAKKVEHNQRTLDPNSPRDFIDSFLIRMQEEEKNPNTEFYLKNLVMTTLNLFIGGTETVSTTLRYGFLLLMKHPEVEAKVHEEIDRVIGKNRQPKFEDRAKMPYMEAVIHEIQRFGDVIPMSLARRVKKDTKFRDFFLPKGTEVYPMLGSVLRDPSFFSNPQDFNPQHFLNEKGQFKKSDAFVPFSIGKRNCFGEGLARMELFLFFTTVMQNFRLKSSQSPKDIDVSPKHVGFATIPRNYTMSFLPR

[5] = DRUGMATRIX: Potassium Channel [KATP] radioligand binding (ligand: [3H] Glyburide); assay type: cell membranes, Membrane; details: hit-t15; Not Active = under 50% inhibition at 10 µM
[6] = DRUGMATRIX: Interleukin IL-1 radioligand binding (ligand: [125I] interleukin 1beta); assay type: cell membranes, Membrane; details: nih3t3; Not Active = under 50% inhibition at 10 µM
[7] = target: Cytochrome P450 2E1 (Homo sapiens, UniProt P05181); details: bti-tn-5b1-4; note: in other assays of this panel Not Active means under 50% inhibition at 10 µM
Chain of Cytochrome P450 2E1 (P05181 whole entry): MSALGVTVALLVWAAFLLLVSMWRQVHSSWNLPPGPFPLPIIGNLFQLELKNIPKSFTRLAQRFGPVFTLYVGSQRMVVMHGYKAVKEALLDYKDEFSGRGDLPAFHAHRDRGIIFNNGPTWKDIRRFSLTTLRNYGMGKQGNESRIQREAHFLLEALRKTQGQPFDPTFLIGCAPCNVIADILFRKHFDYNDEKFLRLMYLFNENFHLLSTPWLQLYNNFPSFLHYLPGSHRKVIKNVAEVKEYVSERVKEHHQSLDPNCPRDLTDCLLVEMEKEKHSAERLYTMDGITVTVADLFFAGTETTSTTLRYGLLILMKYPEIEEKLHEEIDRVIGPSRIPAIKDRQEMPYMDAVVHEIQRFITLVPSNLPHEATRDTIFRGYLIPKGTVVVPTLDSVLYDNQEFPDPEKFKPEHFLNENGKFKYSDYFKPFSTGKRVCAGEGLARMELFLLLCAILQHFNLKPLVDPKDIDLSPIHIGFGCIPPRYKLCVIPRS

CO[C@H]1[C@@H](O)[C@H](N)[C@@H](O[C@H]2O[C@H]([C@H](C)N)CC[C@H]2N)[C@H](O)[C@@H]1N(C)C(=O)CN [ASTROMICIN]
Not Active: IC50 [1] | IC50 [2] | IC50 [3] | IC50 [4] | Ki [4] | IC50 [5] | Ki [5] | IC50 [6] | Ki [6] | IC50 [7] | Ki [7]

[N-]=[N+]=CC(=O)OC[C@H](N)C(=O)O [AZASERINE]
Not Active: IC50 [1] | IC50 [2] | IC50 [3] | IC50 [4] | Ki [4] | IC50 [5] | Ki [5] | IC50 [6] | Ki [6] | IC50 [7] | Ki [7]

CC[C@H]1OC(=O)[C@H](C)[C@@H](O[C@H]2C[C@@](C)(OC)[C@@H](O)[C@H](C)O2)[C@H](C)[C@@H](O[C@@H]2O[C@H](C)C[C@H](N(C)C)[C@H]2O)[C@](C)(O)C[C@@H](C)CN(C)[C@H](C)[C@@H](O)[C@]1(C)O [AZITHROMYCIN]
Not Active: IC50 [1] | IC50 [2] | IC50 [3] | IC50 [4] | Ki [4] | IC50 [5] | Ki [5] | IC50 [6] | Ki [6] | IC50 [7] | Ki [7]

CC(C)(C)c1ccc(S(=O)(=O)/C=C/C#N)cc1 [BAY-11-7085]
Not Active: IC50 [1] | IC50 [2] | IC50 [3] | IC50 [4] | Ki [4] | IC50 [5] | Ki [5] | IC50 [6] | Ki [6] | IC50 [7] | Ki [7]

CCc1oc2ccccc2c1C(=O)c1cc(Br)c(O)c(Br)c1 [BENZBROMARONE]
Not Active: IC50 [1] | IC50 [2] | IC50 [3] | IC50 [4] | Ki [4] | IC50 [5] | Ki [5] | IC50 [6] | Ki [6] | IC50 [7] | Ki [7]

O=c1cc(-c2ccccc2)oc2ccc3ccccc3c12 [BETA-NAPHTHOFLAVONE]
Not Active: IC50 [1] | IC50 [2] | IC50 [3] | IC50 [4] | Ki [4] | IC50 [5] | Ki [5] | IC50 [6] | Ki [6] | IC50 [7] | Ki [7]

CC(C)C[C@H]1C(=O)N2CCC[C@H]2[C@]2(O)O[C@](NC(=O)[C@@H]3C=C4c5cccc6[nH]c(Br)c(c56)C[C@H]4N(C)C3)(C(C)C)C(=O)N12 [BROMOCRIPTINE]
Not Active: IC50 [1] | IC50 [2] | IC50 [3] | IC50 [4] | Ki [4] | IC50 [5] | Ki [5] | IC50 [6] | Ki [6] | IC50 [7] | Ki [7]
